For this assay, the system named is MC38 syngeneic mouse colon adenocarcinoma-derived subcutaneous tumor. Nature of the assay: MC38 Study 8: mouse MC38 syngeneic tumor model, individual tumor volume. The format is in vivo. The settings on record: BIWx3 till Day 17. As to the method: MC38 Study 8: MC38 is a mouse colon adenocarcinoma cell line. MC38 mouse syngeneic tumor model was generated by subcutaneous inoculation with 1.0×10^6 MC38 cells (cell suspension) in 11 weeks old female C57BL/6 mice (SINO-British SIPPR/BK Lab Animal Ltd., Shanghai, China) in the flank. When the mean tumor volume reached approximately 60 mm^3, the animals were randomized into one vehicle control and five treatment groups (n=8/group). Mice were then dosed with 20% HPbCD or Compound I-263a or anti-mouse PD-1 antibody over a 21-day period. Tumor growth and body weight were measured twice per week during the treatment and post-treatment periods, and mice were humanely euthanized once they had reached their humane endpoint.
Study 8: A 0.75 mg/mL stock solution of Compound I-263a was formulated weekly in 20% HPβCD and administered intravenously (IV) based on exact animal body weight on each day of treatment, using a dosing volume of 10 mL/kg body weight. Final doses received were 7.5 mg/kg. Dosing volume for Compound I-263a was 0.2 mL. […]
Tumors were measured twice weekly using vernier calipers. Tumor volumes were calculated using standard equation: V=W^2×L/2, where V=volume, W=width, and L=length for the tumor. […] Tumor size and body weight were measured twice a week for the duration of the study. […]

The structures appear in SMILES notation.

On to `Cc1sc(C(=O)c2cncnc2N[C@@H]2C[C@H](COS(N)(=O)=O)[C@@H](O)C2)cc1[C@@H]1NCCc2ccc(Cl)cc21` [Compound I-263a, [(1R,2S,4R)-4-{[5-({4-[(1R)-7-chloro-1,2,3,4-tetrahydroisoquinolin-1-yl]-5-methyl-2-thienyl}carbonyl)pyrimidin-4-yl]amino}-2-hydroxycyclopentyl]methyl sulfamate], for which the “tumors with tumor growth delay” value is, setting by setting: (delay day 11-14, Compound I-263a 7.5 mg/kg IV or anti-mPD-1 10 mg/kg IP) 1; (delay from day 7-18, 8 implanted tumors, Compound I-263a 7.5 mg/kg IV alone or plus anti-mPD-1 10 mg/kg IP) 2.

The values are drawn from US12419890B2, “Administration of sumo-activating enzyme inhibitor and checkpoint inhibitors” (Takeda Pharmaceutical Company Limited, priority 2019, dated 2025).
